≈ marks a conversion by molar mass, not a printed value. Numbered stars: 1 amine (or outer) side, 2 acyl side, 3 side chain; on linkers, the order of the positions; unused ones are H or OH. Square brackets hold non-standard residues; d marks the D form. Peptide text beside a SMILES is read from it. ξ: configuration not given here. X1 = N=C1NCC(C(O)C(N[*:1])C(=O)[*:2])N1C1OC(CO)C(O)C(O)C1O; ξEnduracididine(βξ-OH,4'ξ) = N=C1NCC(C(O)C(N)C(=O)O)N1
Legend:
Test in all cases: in vitro antibacterial evaluation, MIC by broth dilution
Type in all cases: cell-based
Enterococcus sp. = details: broth dilution, 18 hours at 35° C.
In short: (§1)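 Following National Committee for Clinical Laboratory Standards recommendations (M7-A2), susceptibility was measured by dilution in Muller-Hinton II […]. Bacteria were seeded at 5×10^5 CFU/mL against compound concentrations from 64 down to 0.06 μg/mL.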

Escherichia coli = details: 18 hours at 35° C.
In short: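 Read-out: the lowest concentration at which the test strain fails to grow. Serial dilutions (64-0.06 μg/mL) in Muller-Hinton II […], 5×10^5 CFU/mL inoculum, NCCLS M7-A2 procedure.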

Staphylococcus sp. = details: broth dilution, 18 hours at 35° C.
In short: as §1

Streptococcus sp. = details: broth dilution, 18 hours at 35° C.
In short: as §1

N=C1NCC(C(O)C2NC(=O)C(Cc3ccc(O)cc3)NC(=O)C(Cc3ccccc3)NC(=O)CNC(=O)C(CO)NC(=O)C(C(O)C3CNC(=N)N3C3OC(CO)C(O)C(O)C3O)NC2=O)N1 (stereo not drawn) [Example 279a, Cyclo[glycylphenylalanyltyrosyl-3-(2-iminoimidazolidin-4-yl)seryl-3-(3-hexopyranosyl-2-iminoimidazolidin-4-yl)serylseryl]] (cyclo(GFY[ξEnduracididine(βξ-OH,4'ξ)][X1]S); configuration not given here)
MIC Enterococcus avium (GC 4558) (Enterococcus sp.; Enterococcus avium (GC 4558)): >64 µg/mL
MIC Enterococcus faecalis (ATCC 29212) (Enterococcus sp.; Enterococcus faecalis (ATCC 29212)): >64 µg/mL
MIC Enterococcus faecalis (GC 4553) (Enterococcus sp.; Enterococcus faecalis (GC 4553)): >64 µg/mL
MIC Enterococcus faecalis (GC 4554) (Enterococcus sp.; Enterococcus faecalis (GC 4554)): >64 µg/mL
MIC Enterococcus faecalis (GC 6189) (Enterococcus sp.; Enterococcus faecalis (GC 6189)): >64 µg/mL
MIC Enterococcus faecium (GC 2243) (Enterococcus sp.; Enterococcus faecium (GC 2243)): >64 µg/mL
MIC Enterococcus faecium (GC 4556) (Enterococcus sp.; Enterococcus faecium (GC 4556)): >64 µg/mL
MIC Enterococcus faecium (GC 4557) (Enterococcus sp.; Enterococcus faecium (GC 4557)): 64 µg/mL (≈ 66.9 µM)
MIC Enterococcus faecalis (ATCC 29212) (Enterococcus sp.; strain ATCC 29212): >64 µg/mL
MIC Enterococcus faecalis (GC 2242) (Enterococcus sp.; strain GC 2242): >64 µg/mL
MIC Enterococcus faecium (GC 2243) (Enterococcus sp.; strain GC 2243): >64 µg/mL
MIC Enterococcus faecalis (GC 2691) (Enterococcus sp.; strain GC 2691): >64 µg/mL
MIC Enterococcus faecalis (GC 3059) (Enterococcus sp.; strain GC 3059): >64 µg/mL
MIC Enterococcus faecalis (GC 4552) (Enterococcus sp.; strain GC 4552): >64 µg/mL
MIC Enterococcus faecalis (GC 4553) (Enterococcus sp.; strain GC 4553): >64 µg/mL
MIC Enterococcus faecalis (GC 4554) (Enterococcus sp.; strain GC 4554): >64 µg/mL
MIC Enterococcus faecium (GC 4556) (Enterococcus sp.; strain GC 4556): >64 µg/mL
MIC Enterococcus faecium (GC 4557) (Enterococcus sp.; strain GC 4557): 64 µg/mL (≈ 66.9 µM)
MIC Enterococcus avium (GC 4558) (Enterococcus sp.; strain GC 4558): >64 µg/mL
MIC Enterococcus faecalis (GC 6189) (Enterococcus sp.; strain GC 6189): >64 µg/mL
MIC Escherichia coli (ATCC 25922) (Escherichia coli; Escherichia coli (ATCC 25922)): 64 µg/mL (≈ 66.9 µM)
MIC Escherichia coli (GC 4559) (Escherichia coli; Escherichia coli (GC 4559)): 64 µg/mL (≈ 66.9 µM)
MIC Escherichia coli (GC 4560) (Escherichia coli; Escherichia coli (GC 4560)): 32 µg/mL (≈ 33.4 µM)
MIC Coagulase Negative Staphylococcus (GC 4547) (Staphylococcus sp.): 64 µg/mL (≈ 66.9 µM)
MIC Coagulase Negative Staphylococcus (GC 4548) (Staphylococcus sp.): >64 µg/mL
MIC Coagulase Negative Staphylococcus (GC 4549) (Staphylococcus sp.): 64 µg/mL (≈ 66.9 µM)
MIC Coagulase Negative Staphylococcus (GC 4551) (Staphylococcus sp.): >64 µg/mL
MIC Coagulase Negative Staphylococcus (GC 6257) (Staphylococcus sp.): 64 µg/mL (≈ 66.9 µM)
MIC Staphylococcus aureus (ATCC 29213) (Staphylococcus sp.): >64 µg/mL
MIC Staphylococcus aureus (GC 1131) (Staphylococcus sp.): >64 µg/mL
MIC Staphylococcus aureus (GC 3051) (Staphylococcus sp.): >64 µg/mL
MIC Staphylococcus aureus (GC 3053) (Staphylococcus sp.): >64 µg/mL
MIC Staphylococcus aureus (GC 4541) (Staphylococcus sp.): >64 µg/mL
MIC Staphylococcus aureus (GC 4542) (Staphylococcus sp.): >64 µg/mL
MIC Staphylococcus aureus (GC 4544) (Staphylococcus sp.): >64 µg/mL
MIC Staphylococcus aureus (GC 4545) (Staphylococcus sp.): >64 µg/mL
MIC Staphylococcus aureus-SMITH (GC 4543) (Staphylococcus sp.): >64 µg/mL
MIC Staphylococcus haemolyticus (GC 4546) (Staphylococcus sp.): 64 µg/mL (≈ 66.9 µM)
MIC Staphylococcus aureus (ATCC 29213) (Staphylococcus sp.; strain ATCC 29213): >64 µg/mL
MIC Staphylococcus aureus (GC 1131) (Staphylococcus sp.; strain GC 1131): >64 µg/mL
MIC Staphylococcus aureus (GC 3051) (Staphylococcus sp.; strain GC 3051): >64 µg/mL
MIC Staphylococcus aureus (GC 3053) (Staphylococcus sp.; strain GC 3053): >64 µg/mL
MIC Staphylococcus aureus (GC 4541) (Staphylococcus sp.; strain GC 4541): >64 µg/mL
MIC Staphylococcus aureus (GC 4542) (Staphylococcus sp.; strain GC 4542): >64 µg/mL
MIC Staphylococcus aureus (GC 4544) (Staphylococcus sp.; strain GC 4544): >64 µg/mL
MIC Staphylococcus aureus (GC 4545) (Staphylococcus sp.; strain GC 4545): >64 µg/mL
MIC Staphylococcus haemolyticus (GC 4546) (Staphylococcus sp.; strain GC 4546): 64 µg/mL (≈ 66.9 µM)
MIC Coagulase Negative Staphylococcus (GC 4547) (Staphylococcus sp.; strain GC 4547): 64 µg/mL (≈ 66.9 µM)
MIC Coagulase Negative Staphylococcus (GC 4548) (Staphylococcus sp.; strain GC 4548): >64 µg/mL
MIC Coagulase Negative Staphylococcus (GC 4549) (Staphylococcus sp.; strain GC 4549): 64 µg/mL (≈ 66.9 µM)
MIC Coagulase Negative Staphylococcus (GC 4551) (Staphylococcus sp.; strain GC 4551): >64 µg/mL
MIC Coagulase Negative Staphylococcus (GC 6257) (Staphylococcus sp.; strain GC 6257): 64 µg/mL (≈ 66.9 µM)
MIC Staphylococcus aureus-SMITH (GC 4543) (Staphylococcus sp.; strain SMITH GC 4543): >64 µg/mL
MIC Streptococcus pneumoniae (ATCC 6301) (Streptococcus sp.; strain ATCC 6301): 64 µg/mL (≈ 66.9 µM)
MIC Streptococcus pneumoniae (GC 1894) (Streptococcus sp.; strain GC 1894): 64 µg/mL (≈ 66.9 µM)
MIC Streptococcus pyogenes (GC 4563) (Streptococcus sp.; strain GC 4563): 64 µg/mL (≈ 66.9 µM)
MIC Streptococcus agalactiae (GC 4564) (Streptococcus sp.; strain GC 4564): >64 µg/mL
MIC Streptococcus pneumoniae (GC 4565) (Streptococcus sp.; strain GC 4565): >64 µg/mL
